Data reported in ChEMBL document CHEMBL1201862, “PubChem BioAssay data set” (2004).
Activity calls are given as the source filed them.

Tests used:
[1] = molecular target: DNA dC->dU-editing enzyme APOBEC-3A (Homo sapiens, UniProt P31941); experiment: Dose Response confirmation of small molecule APOBEC3A DNA Deaminase Inhibitors via a fluorescence-based single-stranded DNA deaminase assay. [Related pubchem assays (depositor defined):AID493011, AID493024]; format: functional
[2] = molecular target: DNA dC->dU-editing enzyme APOBEC-3G (Homo sapiens, UniProt Q9HC16); format: functional;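 also: Dose-response counterscreen measuring inhibition of APOBEC3G DNA deaminase activity, run while confirming APOBEC3A inhibitors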
[3] = HEK-293T cell viability reduction – luminescence, B-cell screen hits, cytotoxicity control for BCR NF-kB inhibitor project, dose response (AID 489021); format: functional, cell-based;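 also: HEK-293T cells carrying an NF-kB luciferase reporter; cells exposed to compound for about 14 hours before viability readout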
[4] = molecular target: T1, Heat shock factor protein 1 (Mus musculus, UniProt P38532); experiment: decrease of HSF1-responsive luciferase luminescence – cell-based, NIH3T3, dose retest, confirmation (AID 2382); format: functional;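 also: NIH3T3 fibroblasts with HSF1-driven luciferase reporter stressed by proteasome inhibitor MG132; luminescence from HSF1-driven luciferase expression after 8 hours of MG132 stress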
T1 sequence (P38532 whole entry): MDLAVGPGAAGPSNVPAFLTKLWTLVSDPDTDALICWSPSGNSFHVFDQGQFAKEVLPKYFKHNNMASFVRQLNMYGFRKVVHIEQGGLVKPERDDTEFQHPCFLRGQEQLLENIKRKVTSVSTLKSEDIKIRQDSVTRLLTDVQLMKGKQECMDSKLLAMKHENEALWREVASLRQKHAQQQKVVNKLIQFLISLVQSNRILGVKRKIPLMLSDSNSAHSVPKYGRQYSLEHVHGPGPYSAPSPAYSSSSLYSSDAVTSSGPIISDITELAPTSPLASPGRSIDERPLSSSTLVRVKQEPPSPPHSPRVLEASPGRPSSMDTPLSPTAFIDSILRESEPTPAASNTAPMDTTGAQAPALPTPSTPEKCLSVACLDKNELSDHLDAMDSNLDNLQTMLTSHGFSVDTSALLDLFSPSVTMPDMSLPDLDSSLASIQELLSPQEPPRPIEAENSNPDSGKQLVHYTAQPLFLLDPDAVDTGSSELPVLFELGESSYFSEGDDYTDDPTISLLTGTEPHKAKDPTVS

[5] = molecular target: T2, High affinity choline transporter 1 (Homo sapiens, UniProt Q9GZV3); experiment: human choline transporter blockers, potency – cell-based, 5-point CRC, membrane potential dye, dose response (AID 504840); format: functional
T2 sequence (Q9GZV3 whole entry): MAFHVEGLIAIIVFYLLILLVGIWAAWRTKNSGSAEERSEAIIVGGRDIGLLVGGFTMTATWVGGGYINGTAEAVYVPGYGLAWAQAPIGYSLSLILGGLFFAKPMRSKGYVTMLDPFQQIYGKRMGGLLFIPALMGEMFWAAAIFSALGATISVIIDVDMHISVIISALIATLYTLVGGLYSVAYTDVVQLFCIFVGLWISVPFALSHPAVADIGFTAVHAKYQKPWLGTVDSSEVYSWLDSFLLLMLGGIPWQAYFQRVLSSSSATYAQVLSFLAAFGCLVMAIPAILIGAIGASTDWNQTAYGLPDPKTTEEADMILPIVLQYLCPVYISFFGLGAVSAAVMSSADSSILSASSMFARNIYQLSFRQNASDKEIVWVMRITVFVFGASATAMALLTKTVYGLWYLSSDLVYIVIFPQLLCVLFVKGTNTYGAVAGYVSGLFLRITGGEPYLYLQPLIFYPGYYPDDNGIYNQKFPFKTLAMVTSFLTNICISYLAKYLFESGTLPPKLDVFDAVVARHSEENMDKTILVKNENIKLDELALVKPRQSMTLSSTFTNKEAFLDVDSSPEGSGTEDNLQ

[6] = molecular target: T3, Adenosylmethionine-8-amino-7-oxononanoate aminotransferase (Mycobacterium tuberculosis, UniProt P9WQ81); experiment: Mycobacterium tuberculosis BioA enzyme inhibitor Measured in Biochemical System Using Plate Reader - 2163-02_Inhibitor_Dose_CherryPick_Activity.; format: functional, Mycobacterium tuberculosis UT205
T3 sequence (P9WQ81 whole entry): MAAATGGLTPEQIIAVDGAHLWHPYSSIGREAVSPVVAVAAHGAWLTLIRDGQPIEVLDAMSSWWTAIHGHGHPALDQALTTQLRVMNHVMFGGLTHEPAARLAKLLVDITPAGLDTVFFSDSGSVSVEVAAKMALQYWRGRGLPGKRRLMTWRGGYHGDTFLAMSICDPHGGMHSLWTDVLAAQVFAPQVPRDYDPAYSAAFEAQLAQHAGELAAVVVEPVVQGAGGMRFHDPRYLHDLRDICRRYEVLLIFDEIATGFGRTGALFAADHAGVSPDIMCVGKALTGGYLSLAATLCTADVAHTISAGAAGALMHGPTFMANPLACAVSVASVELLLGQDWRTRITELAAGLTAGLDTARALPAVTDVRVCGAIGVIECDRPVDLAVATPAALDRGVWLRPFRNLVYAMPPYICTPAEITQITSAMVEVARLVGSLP

cells = format: functional
[7] = HepG2 cell cytotoxicity, dose response, cytotoxicity control for non-replicating M. tuberculosis project (AID 489018); format: functional; details: Mycobacterium tuberculosis
[8] = microbe, parasite or virus in culture; format: functional; details: Mycobacterium tuberculosis
[9] = THP-1 cell cytotoxicity, dose response, cytotoxicity control for non-replicating M. tuberculosis project (AID 489025); format: functional
[10] = molecular target: T4, Probable nicotinate-nucleotide adenylyltransferase (Staphylococcus aureus (strain N315), UniProt P65502); format: functional, Staphylococcus aureus subsp. aureus N315;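 as to IC50 Mean: confirmatory dose-response retesting of NadD inhibitor hits first found in an ultra-high-throughput screen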
[11] = molecular target: T4, Probable nicotinate-nucleotide adenylyltransferase; format: functional, Staphylococcus aureus subsp. aureus N315; details: read-out: IC50_Mean
P388/ADR = experiment: cells; format: functional; details: Mus musculus
P388 = experiment: cells; format: functional; details: Mus musculus
SN12K1 = experiment: cells; format: functional; details: Homo sapiens
[12] = growth inhibition of yeast DHODH-expressing 3D7 parasites – SYBR Green, dry powder samples, dose response (AID 1159570); format: functional, cell-based;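 also: parasite growth measured after 72 hours of compound exposure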
[13] = P. falciparum Dd2 growth inhibitors, dose response, SYBR Green, cherry-picked samples (AID 1159567); format: functional, cell-based
[14] = growth inhibition of PfATP4-mutant resistant parasites – NITD609-resistant line, SYBR Green, dry powder, dose response (AID 1159571); format: functional, cell-based;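 also: parasites synchronized at ring stage by sorbitol before testing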
[15] = Dd2 malaria parasite growth inhibition potency – SYBR Green, dry powder samples, dose response (AID 1159566); format: functional, cell-based;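 also: potency for growth inhibition with lower SYBR green DNA signal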
[16] = toxicity to human HepG2 hepatoma cells – cell-based, plate reader, dry powder samples, cytotoxicity control, dose response (AID 1159569); format: functional;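 also: inhibitor potency with signal falling toward the positive control level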

DNA dC->dU-editing enzyme APOBEC-3A, sequence (P31941 whole entry): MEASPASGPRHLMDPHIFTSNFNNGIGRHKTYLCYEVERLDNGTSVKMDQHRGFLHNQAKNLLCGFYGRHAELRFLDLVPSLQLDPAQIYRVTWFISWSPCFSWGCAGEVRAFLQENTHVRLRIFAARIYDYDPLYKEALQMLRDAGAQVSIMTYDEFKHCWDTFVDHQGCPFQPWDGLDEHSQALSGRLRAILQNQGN
DNA dC->dU-editing enzyme APOBEC-3G, sequence (Q9HC16 whole entry): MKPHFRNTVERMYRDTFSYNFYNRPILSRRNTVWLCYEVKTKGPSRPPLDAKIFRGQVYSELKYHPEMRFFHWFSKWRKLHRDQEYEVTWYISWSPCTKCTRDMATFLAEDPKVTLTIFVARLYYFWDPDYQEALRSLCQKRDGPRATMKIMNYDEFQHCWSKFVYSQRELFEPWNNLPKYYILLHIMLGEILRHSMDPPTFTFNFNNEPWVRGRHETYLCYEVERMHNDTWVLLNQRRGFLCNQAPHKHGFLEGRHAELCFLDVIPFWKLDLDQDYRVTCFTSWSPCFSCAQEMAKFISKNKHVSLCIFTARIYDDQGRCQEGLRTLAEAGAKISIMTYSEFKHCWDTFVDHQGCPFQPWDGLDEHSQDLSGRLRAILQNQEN
T4 sequence (P65502 whole entry): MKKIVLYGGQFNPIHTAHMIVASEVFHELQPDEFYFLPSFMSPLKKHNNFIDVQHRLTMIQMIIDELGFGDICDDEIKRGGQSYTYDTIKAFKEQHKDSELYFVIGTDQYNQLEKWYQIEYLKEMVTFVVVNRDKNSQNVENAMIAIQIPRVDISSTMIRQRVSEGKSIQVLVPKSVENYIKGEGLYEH

## C[N+]1(CC(=O)OCCCc2ccccc2)CCCCC1
[1]
  IC50: 2.1 µM (active)
[2]
  IC50: 2.42 µM (active)

## Fc1ccc(C2=Nn3c(nnc3-c3[nH]nc4c3CCC4)SC2)cc1
[3]
  IC50: > 80 µM (inactive)

## Cc1ccc(-c2cc(C(=O)NCCCN3CCOCC3)no2)cc1
[4]
  EC50: 19.1 µM (active)
[3]
  IC50: > 80 µM (inactive)

## CN(Cc1ccccc1)S(=O)(=O)c1ccc2ncc(C(=O)NCC3CCCO3)c(O)c2c1 (stereo not given)
[5]
  IC50: 15.2 µM (active)

## CCOc1cc(C=C2C(=O)NC(=O)NC2=O)ccc1OS(=O)(=O)c1ccccc1
[5]
  IC50: 12.6 µM (active)

## C=CCn1c(SCc2c(C(=O)OC)sc(N)c2C(=O)OC)nnc1-c1ccc(Cl)cc1
[6]
  AC50: 0.244 µM (active)

## Cc1cc(C)cc(OCC(=O)N2N=C(C(F)(F)F)CC2(O)C(C)(C)C)c1 (stereo not given)
[1]
  IC50: 4.6 µM (active)
[2]
  IC50: 5.91 µM (active)

## CC(=O)Nc1ccc2c(COC(=O)CC3Sc4ccccc4NC3=O)cc(=O)oc2c1 (stereo not given)
[1]
  IC50: 19.3 µM (active)
[2]
  IC50: 30.7 µM (active)

## COc1ccc(C(CCNCc2ccc(OC(C)C)cc2)C(C)C)cc1 (stereo not given)
cells
  IC50: 23 µM (active)
[7]
  CC50: 13.6 µM (active)
[8]
  CC50: 23.1 µM (active)
[9]
  CC50: 13.7 µM (active)

## N#CC1=C(S)N=C(N)C(c2nc(-c3ccccc3)cs2)C12CCCC2 (stereo not given)
[10]
  IC50: 8.09 µM (active)
[11]
  IC50: 19.1 µM (active)

## CCN(CC)C(=O)Cn1c(C)c(/C=C/c2cc[n+](C)cc2)c2ccccc21
[1]
  IC50: 2.08 µM (active)
[2]
  IC50: 4.08 µM (active)

## CCCCC(Br)C(=O)Nc1ccc(S(=O)(=O)Nc2cc(C)nc(C)n2)cc1 (stereo not given)
[5]
  IC50: 15.9 µM (active)

## O=C(Nc1cccnc1)C1CCN(S(=O)(=O)c2ccc(Cl)cc2)CC1
[6]
  AC50: 0.711 µM (active)

## CC[n+]1c(C)n(Cc2ccccc2)c2ccc(Cl)cc21
[1]
  IC50: 1.39 µM (active)
[2]
  IC50: 2.27 µM (active)

## CCN(C(=O)CN1C(=O)NC(c2ccccc2)(c2ccc(C)c(C)c2)C1=O)C1CCCCC1 (stereo not given)
[3]
  IC50: > 80 µM (inactive)

## Cc1cnc(C(=O)NC2CC(C)(C)Cc3c2cnn3-c2cccc(F)c2)cn1 (stereo not given)
[6]
  AC50: 1.63 µM (active)

## Cc1n(CC(=O)c2ccc([N+](=O)[O-])cc2)c2c([n+]1CC(C)C)C(=O)c1ccccc1C2=O
P388/ADR
  GI50: 22.2 µM (inactive)
P388
  GI50: 0.194 µM (active)
SN12K1
  GI50: < 0.01 µM (active)

## Cc1ccc(N2Cc3c(ccc4ccccc34)OP2(=S)N2CCCC2)cc1 (stereo not given)
P388/ADR
  GI50: 26.2 µM (inactive)
P388
  GI50: 18.6 µM (inactive)
SN12K1
  GI50: > 77.6 µM (inactive)

## Cc1[nH]c(=O)[nH]c(=O)c1/C=C/C(=O)NC(CO)CC(C)C (stereo not given)
P388/ADR
  GI50: 174 µM (inactive)
P388
  GI50: > 375 µM (inactive)
SN12K1
  GI50: > 360 µM (inactive)

## Cc1ccccc1CSCC1Nc2ccc(C(=O)NCCc3ccccc3)cc2NC1=O (stereo not given)
[10]
  IC50: 6.55 µM (active)
[11]
  IC50: 17.2 µM (active)

## O=C(c1cccc(F)c1)N1CC[C@@H]2[C@@H](CO)Nc3ccc(-c4cccc(F)c4)cc3[C@@H]21
[6]
  AC50: 0.222 µM (active)

## COCC(=O)N1CC[C@@H]2[C@@H](CO)N(C)c3ccc(-c4ccc(F)cc4)cc3[C@@H]21
[6]
  AC50: 0.948 µM (active)

## CSCC[C@@H](NC(=O)[C@H](CC(C)C)NC(=O)C(Cc1cnc[nH]1)NC(=O)CNC(=O)[C@@H](NC(=O)[C@H](C)NC(=O)[C@H](Cc1cn(C=O)c2ccccc12)NC(=O)[C@H](CCC(N)=O)NC(=O)[C@@H](N)CC(N)=O)C(C)C)C(N)=O (stereo not given in full)
P388/ADR
  GI50: > 100 µM (inactive)
P388
  GI50: > 100 µM (inactive)
SN12K1
  GI50: > 100 µM (inactive)

## NCCCCCC(CCN)SCC1OC(n2cnc3c(N)ncnc32)C(O)C1O (stereo not given)
P388/ADR
  GI50: 124 µM (inactive)
P388
  GI50: 637 µM (inactive)
SN12K1
  GI50: 431 µM (inactive)

## CC(C)(C)S(=O)(=O)/C(C#N)=N/Nc1ccc(C#N)cc1
[5]
  IC50: 12 µM (active)

## C[C@H]1CN([C@@H](C)CO)C(=O)c2cc(NC(=O)Nc3cccc4ccccc34)ccc2O[C@H]1CN(C)C(=O)Nc1ccc(C(F)(F)F)cc1
[12]
  AC50: 1.86 µM (active)
[13]
  AC50: 2.37 µM (active)
[14]
  AC50: 3.76 µM (active)
[15]
  AC50: 1.5 µM (active)
[16]
  AC50: > 100 µM (inactive)

## N#C[C@@H]1[C@H](c2ccc(C3=CCCCC3)cc2)[C@H](CO)N1C(=O)NC1CCCC1
[12]
  AC50: 5.81 µM (active)
[13]
  AC50: 1.96 µM (active)
[14]
  AC50: 1.41 µM (active)
[15]
  AC50: 0.923 µM (active)
[16]
  AC50: 0.338 µM (active)

## O=C(Nc1ccccc1F)N1CCCCN2[C@@H](CO)[C@@H](c3ccc(C#Cc4cccnc4)cc3)[C@@H]2C1
[12]
  AC50: 1.95 µM (active)
[13]
  AC50: 1.33 µM (active)
[14]
  AC50: 1.35 µM (active)
[15]
  AC50: 0.95 µM (active)
[16]
  AC50: 42.6 µM (active)

## CCC(=O)N1CCC2(CC1)CN(Cc1cccc(OC)c1)[C@@H](CO)c1[nH]c3cc(OC)ccc3c12
[12]
  AC50: 2.56 µM (active)
[13]
  AC50: 2.63 µM (active)
[14]
  AC50: 1.92 µM (active)
[15]
  AC50: 2.21 µM (active)
[16]
  AC50: 97.6 µM (active)

## CO[C@H](C(=O)[C@@H](O)[C@@H](C)O)[C@@H]1Cc2cc3cc(OC4CC(OC5CC(O)C(O)C(C)O5)C(O)C(C)O4)c(C)c(O)c3c(O)c2C(=O)[C@H]1OC1CC(OC2CC(OC3CC(C)(O)C(O)C(C)O3)C(O)C(C)O2)C(O)C(C)O1 (stereo not given in full)
P388/ADR
  GI50: 1.33 µM (inactive)
P388
  GI50: 0.441 µM (active)
SN12K1
  GI50: 0.348 µM (active)

## CC(C)CCC[C@@H](C)[C@H]1CC[C@H]2[C@@H]3C(=O)C=C4C[C@@H](O)CC[C@]4(C)[C@H]3CC[C@]12C [7-OXOCHOLESTEROL]
[8]
  CC50: > 40 µM (active)
